In this experiment the target is T1, CaV2.2 (Homo sapiens, UniProt Q00975).
T1 construct: expressed in transfected cells; host or cells: HEK293
Nature of the experiment: VIPR optical membrane potential assay with electrical stimulation. It is filed as cell-based. As to conditions: Table 3, biological assay data; read-out: IC50. The protocol:
Antagonist properties of test compounds were assessed as follows. Cells expressing the CaV of interest were placed into microtiter plates. After an incubation period, the cells were stained with fluorescent dyes sensitive to the transmembrane potential. The test compounds were added to the microtiter plate. The cells were stimulated with electrical means to evoke a CaV dependent membrane potential change from unblocked channels, which was detected and measured with trans-membrane potential-sensitive dyes. Antagonists were detected as a decreased membrane potential response to the stimulus.
VIPR® Optical Membrane Potential Assay Method with Electrical Stimulation
The following is an example of how CaV2.2 inhibition activity is measured using the optical membrane potential method. Other subtypes are performed in an analogous mode in a cell line expressing the CaV of interest.
HEK293 cells stably expressing CaV2.2 are plated into 96-well microtiter plates. After an appropriate incubation period, the cells are stained with the voltage sensitive dyes CC2-DMPE/DiSBAC2(3) as follows.
2×CC2-DMPE=20 μM CC2-DMPE: 10 mM CC2-DMPE is vortexed with an equivalent volume of 10% Pluronic, followed by vortexing in required amount of HBSS containing 10 mM HEPES. Each cell plate will require 5 mL of 2×CC2-DMPE. 50 μL of 2×CC2-DMPE is added to wells containing washed cells, resulting in a 10 μM final staining concentration. The cells are stained for 30 minutes in the dark at RT.
Vortex in required amount of Bath X with beta-cyclodextrin. Each 96 well cell plate will require 5 ml of 2×CC2DMPE. Wash plate with ELx405 with Bath X, leaving a residual volume of 50 μL/well. Add 50 μL of 2×CC2DMPE & DISBAC6(3) to each well. Stain for 30 minutes in the dark at RT.
Allow solution to sit for 10 minutes. Slowly mix in 370 mM BaCl2. This solution can be used to solvate compound plates. Note that compound plates are made at 1.5× drug concentration and not the usual 2×. Wash CC2 stained plate, again, leaving residual volume of 50 pt. Add 100 uL/well of the AY17 solution. Stain for 15 minutes in the dark at RT. Run plate on the optical reader.
The instrument comprises a microtiter plate handler, an optical system for exciting the coumarin dye while simultaneously recording the coumarin and oxonol emissions, a waveform generator, a current- or voltage-controlled amplifier, and a device for inserting electrodes in well. Under integrated computer control, this instrument passes user-programmed electrical stimulus protocols to cells within the wells of the microtiter plate.
Insert or use electrodes into each well to be assayed.
Use the current-controlled amplifier to deliver stimulation wave pulses for 3-5 s. Two seconds of pre-stimulus recording are performed to obtain the un-stimulated intensities. Five seconds of post-stimulation recording are performed to examine the relaxation to the resting state.
Data are analyzed and reported as normalized ratios of background-subtracted emission intensities measured in the 460 nm and 580 nm channels. Background intensities are then subtracted from each assay channel. Background intensities are obtained by measuring the emission intensities during the same time periods from identically treated assay wells in which there are no cells. The response as a function of time is then reported as the ratios obtained using the following formula: […]
The data is further reduced by calculating the initial (Ri) and final (Rf) ratios. These are the average ratio values during part or all of the pre-stimulation period, and during sample points during the stimulation period. The response to the stimulus R=Rf/Ri is then calculated.
Control responses are obtained by performing assays in the presence of a compound with the desired properties (positive control), such as mibefradil, and in the absence of pharmacological agents (negative control). Responses to the negative (N) and positive (P) controls are calculated as above.

SMILES strings stand for the structures.

T1 sequence (Q00975 whole entry): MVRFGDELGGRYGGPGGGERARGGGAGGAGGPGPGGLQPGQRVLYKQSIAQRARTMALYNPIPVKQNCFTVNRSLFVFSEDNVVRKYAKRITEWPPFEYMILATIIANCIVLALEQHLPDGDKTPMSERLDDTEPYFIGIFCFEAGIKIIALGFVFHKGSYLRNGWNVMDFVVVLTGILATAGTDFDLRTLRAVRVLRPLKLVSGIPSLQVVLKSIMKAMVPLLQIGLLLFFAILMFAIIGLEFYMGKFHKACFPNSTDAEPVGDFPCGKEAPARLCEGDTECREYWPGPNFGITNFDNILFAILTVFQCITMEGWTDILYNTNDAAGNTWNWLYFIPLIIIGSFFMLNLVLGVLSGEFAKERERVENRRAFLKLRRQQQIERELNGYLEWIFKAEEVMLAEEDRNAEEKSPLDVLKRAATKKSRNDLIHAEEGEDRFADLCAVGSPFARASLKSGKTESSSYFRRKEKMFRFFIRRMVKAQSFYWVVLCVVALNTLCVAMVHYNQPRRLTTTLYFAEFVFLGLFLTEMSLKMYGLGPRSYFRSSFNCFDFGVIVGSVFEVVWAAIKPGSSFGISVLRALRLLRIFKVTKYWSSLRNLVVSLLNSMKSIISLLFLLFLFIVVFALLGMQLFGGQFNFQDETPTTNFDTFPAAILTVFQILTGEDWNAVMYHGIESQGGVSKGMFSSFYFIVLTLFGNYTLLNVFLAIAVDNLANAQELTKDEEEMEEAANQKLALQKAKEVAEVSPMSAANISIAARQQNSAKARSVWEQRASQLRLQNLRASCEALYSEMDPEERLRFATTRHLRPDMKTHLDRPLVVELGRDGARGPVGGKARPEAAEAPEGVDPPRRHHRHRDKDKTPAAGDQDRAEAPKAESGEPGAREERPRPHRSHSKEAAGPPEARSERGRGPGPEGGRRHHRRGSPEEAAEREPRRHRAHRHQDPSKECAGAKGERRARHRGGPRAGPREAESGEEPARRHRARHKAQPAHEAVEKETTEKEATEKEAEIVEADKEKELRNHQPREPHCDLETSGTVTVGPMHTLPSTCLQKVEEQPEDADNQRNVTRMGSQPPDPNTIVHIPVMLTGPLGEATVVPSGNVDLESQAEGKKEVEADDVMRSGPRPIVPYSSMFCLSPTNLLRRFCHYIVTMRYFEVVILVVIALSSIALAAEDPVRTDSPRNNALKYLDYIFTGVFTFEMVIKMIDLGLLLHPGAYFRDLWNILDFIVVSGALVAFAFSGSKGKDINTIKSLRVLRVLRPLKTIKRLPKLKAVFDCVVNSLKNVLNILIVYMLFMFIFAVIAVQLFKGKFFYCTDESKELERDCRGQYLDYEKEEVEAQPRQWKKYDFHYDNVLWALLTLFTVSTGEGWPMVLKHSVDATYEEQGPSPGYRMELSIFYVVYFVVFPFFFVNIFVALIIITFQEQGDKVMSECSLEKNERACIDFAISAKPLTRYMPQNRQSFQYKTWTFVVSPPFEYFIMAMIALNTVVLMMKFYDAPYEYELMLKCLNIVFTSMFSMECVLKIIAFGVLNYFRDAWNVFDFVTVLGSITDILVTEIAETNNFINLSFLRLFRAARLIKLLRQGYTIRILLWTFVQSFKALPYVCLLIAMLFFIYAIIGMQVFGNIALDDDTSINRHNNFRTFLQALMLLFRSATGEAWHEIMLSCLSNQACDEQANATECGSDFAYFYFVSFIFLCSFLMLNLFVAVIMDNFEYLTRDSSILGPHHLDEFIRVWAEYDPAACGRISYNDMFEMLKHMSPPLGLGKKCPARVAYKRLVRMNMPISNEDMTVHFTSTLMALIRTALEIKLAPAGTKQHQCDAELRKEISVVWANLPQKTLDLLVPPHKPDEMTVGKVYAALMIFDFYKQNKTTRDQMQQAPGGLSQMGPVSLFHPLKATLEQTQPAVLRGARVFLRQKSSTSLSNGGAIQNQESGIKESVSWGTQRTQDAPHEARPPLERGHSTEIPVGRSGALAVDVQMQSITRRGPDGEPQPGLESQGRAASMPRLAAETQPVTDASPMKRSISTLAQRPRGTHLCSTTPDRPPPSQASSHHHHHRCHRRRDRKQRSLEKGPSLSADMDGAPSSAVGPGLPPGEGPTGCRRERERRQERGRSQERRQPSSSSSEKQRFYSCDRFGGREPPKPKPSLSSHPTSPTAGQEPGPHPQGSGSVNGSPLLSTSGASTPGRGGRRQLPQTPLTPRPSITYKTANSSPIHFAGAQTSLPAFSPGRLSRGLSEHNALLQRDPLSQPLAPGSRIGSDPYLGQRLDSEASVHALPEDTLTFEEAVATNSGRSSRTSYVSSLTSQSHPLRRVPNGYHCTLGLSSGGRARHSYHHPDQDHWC
T1 sequence (P54284 whole entry partner): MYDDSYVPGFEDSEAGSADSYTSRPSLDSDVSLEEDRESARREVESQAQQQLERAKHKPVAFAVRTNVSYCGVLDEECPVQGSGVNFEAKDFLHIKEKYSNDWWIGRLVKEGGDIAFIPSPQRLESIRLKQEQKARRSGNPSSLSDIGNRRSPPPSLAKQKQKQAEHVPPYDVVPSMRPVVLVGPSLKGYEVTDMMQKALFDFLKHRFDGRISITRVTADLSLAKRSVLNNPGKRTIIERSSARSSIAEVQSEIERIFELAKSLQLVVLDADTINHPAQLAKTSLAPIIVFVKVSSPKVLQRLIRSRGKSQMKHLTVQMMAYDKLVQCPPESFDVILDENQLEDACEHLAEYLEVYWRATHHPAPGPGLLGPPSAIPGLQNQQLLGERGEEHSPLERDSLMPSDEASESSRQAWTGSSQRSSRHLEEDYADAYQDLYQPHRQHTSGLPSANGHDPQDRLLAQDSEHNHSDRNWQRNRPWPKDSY
T1 sequence (P54289 25-946 partner limits assumed): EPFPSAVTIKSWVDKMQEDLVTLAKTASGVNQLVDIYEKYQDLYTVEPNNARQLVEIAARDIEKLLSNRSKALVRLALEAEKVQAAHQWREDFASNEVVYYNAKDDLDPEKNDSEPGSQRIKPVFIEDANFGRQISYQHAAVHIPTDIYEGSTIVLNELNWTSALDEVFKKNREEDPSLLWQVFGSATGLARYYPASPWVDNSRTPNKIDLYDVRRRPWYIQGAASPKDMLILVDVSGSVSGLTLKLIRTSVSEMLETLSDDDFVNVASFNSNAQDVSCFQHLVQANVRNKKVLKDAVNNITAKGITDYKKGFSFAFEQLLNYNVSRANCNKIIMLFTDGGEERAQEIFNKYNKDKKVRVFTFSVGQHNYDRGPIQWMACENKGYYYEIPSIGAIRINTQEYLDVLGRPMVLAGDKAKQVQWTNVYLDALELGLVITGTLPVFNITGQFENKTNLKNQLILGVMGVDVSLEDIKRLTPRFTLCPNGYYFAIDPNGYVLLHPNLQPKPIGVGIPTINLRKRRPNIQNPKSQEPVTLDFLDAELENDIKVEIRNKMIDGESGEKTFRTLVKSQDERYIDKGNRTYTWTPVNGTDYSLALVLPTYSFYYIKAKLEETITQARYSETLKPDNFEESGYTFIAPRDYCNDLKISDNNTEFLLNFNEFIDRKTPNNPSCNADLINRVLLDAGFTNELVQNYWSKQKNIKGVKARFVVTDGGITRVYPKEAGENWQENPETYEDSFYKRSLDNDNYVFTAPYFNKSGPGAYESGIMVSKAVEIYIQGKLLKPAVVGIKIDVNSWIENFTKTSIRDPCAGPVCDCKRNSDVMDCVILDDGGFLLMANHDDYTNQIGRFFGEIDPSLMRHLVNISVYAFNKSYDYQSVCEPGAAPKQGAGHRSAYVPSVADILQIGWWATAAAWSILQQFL
T1 sequence (P54289 947-1103 partner limits assumed): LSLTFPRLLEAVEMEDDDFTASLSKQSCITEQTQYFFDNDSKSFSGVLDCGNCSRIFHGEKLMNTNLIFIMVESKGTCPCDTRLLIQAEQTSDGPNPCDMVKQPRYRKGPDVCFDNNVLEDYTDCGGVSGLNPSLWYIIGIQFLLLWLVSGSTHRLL

As to `Cc1c(C(=O)N2CCCC(C)C2)oc2ccc(S(=O)(=O)N3CCC(C)CC3)cc12` (centres unmarked) [compound 58], the IC50 (as a rule, the concentration that gives 50% inhibition) was in the range of 5 to 20 µM.
Regarding `Cc1c(C(=O)N2CCCCC2C)oc2ccc(S(=O)(=O)N3CCCCC3)cc12` (centres unmarked) [compound 59], the IC50 fell in the range of 5 to 20 µM.
In the case of `Cc1c(C(=O)N2CC(C)CC(C)C2)[nH]c2ccc(S(=O)(=O)N3CC(C)CC(C)C3)cc12` (centres unmarked) [compound 60] it was below 5 µM; in that of `Cc1c(C(=O)N2CCCCC2C)oc2ccc(S(=O)(=O)N3CCCC(C)C3)cc12` (centres unmarked) [compound 61], 5 to 20 µM; in that of `Cc1c(C(=O)NC2CCCCC2)oc2ccc(S(=O)(=O)N3CC(C)CC(C)C3)cc12` (centres unmarked) [compound 62], below 5 µM.
In the case of `Cc1c(C(=O)NCc2cccnc2)oc2ccc(S(=O)(=O)N3CC(C)CC(C)C3)cc12` (centres unmarked) [compound 63] it was 5 to 20 µM.
The value for `Cc1c(C(=O)N2CCCCC2)oc2ccc(S(=O)(=O)N3CCCCC3)cc12` [compound 64] was 5 to 20 µM; that for `Cc1c(C(=O)N2CCCCC2)oc2ccc(S(=O)(=O)N3CCOCC3)cc12` [compound 65] was below 20 µM; that for `O=C(NC1CC1)c1cc2cc(N(Cc3ccccc3)S(=O)(=O)c3ccccc3)ccc2[nH]1` [compound 66] was 5 to 20 µM.
On to `CC(C)N(C(=O)c1cc2cc(S(=O)(=O)N3CCCCCC3)ccc2o1)C(C)C` [compound 67], for which the half-inhibitory concentration (IC50) is below 5 µM.
In the case of `Cc1c(C(=O)NCC2CCCO2)[nH]c2ccc(S(=O)(=O)N3CCCCCC3)cc12` (centres unmarked) [compound 68] it was 5 to 20 µM; in that of `Cc1c(C(=O)N2CCCCC2)[nH]c2ccc(S(=O)(=O)N3CCCCCC3)cc12` [compound 69], 5 to 20 µM; in that of `CCN1CCN(C(=O)c2oc3ccc(S(=O)(=O)N4CCCCCC4)cc3c2C)CC1` [compound 70], 5 to 20 µM.
In the case of `O=C(NC1CC1)c1cc2cc(NS(=O)(=O)C3CC3)ccc2[nH]1` [compound 71] it was below 20 µM.
In the case of `CCOC(=O)N1CCN(C(=O)c2cc3cc(S(=O)(=O)N4CCCCCC4)ccc3[nH]2)CC1` [compound 72] it was 5 to 20 µM; in that of `Cc1c(C(=O)NCc2ccccn2)oc2ccc(S(=O)(=O)N3CC(C)CC(C)C3)cc12` (centres unmarked) [compound 73], below 20 µM; in that of `Cc1c(C(=O)N2CCCCC2)[nH]c2ccc(S(=O)(=O)N3CCC(C)CC3)cc12` [compound 74], below 5 µM.
On to `Cc1c(C(=O)NC2CCCCC2)oc2ccc(S(=O)(=O)N3CCOCC3)cc12` [compound 75], for which the IC50 is below 20 µM.
In the case of `COc1ccccc1CNC(=O)c1oc2ccc(S(=O)(=O)N3CCCCC3)cc2c1C` [compound 76] it was 5 to 20 µM; in that of `CCNC(=O)c1cc2cc(S(=O)(=O)N3CCCCCC3)ccc2[nH]1` [compound 77], below 5 µM; in that of `Cc1c(C(=O)NCCC2CCOCC2)[nH]c2ccc(S(=O)(=O)N3CC(C)CC(C)C3)cc12` (centres unmarked) [compound 78], 5 to 20 µM.
The value for `Cc1c(C(=O)NCCCN2CCOCC2)oc2ccc(S(=O)(=O)N3CC(C)CC(C)C3)cc12` (centres unmarked) [compound 79] was below 5 µM; that for `Cc1c(C(=O)NCC2CCCCC2)oc2ccc(S(=O)(=O)N3CCC(C)CC3)cc12` [compound 80] was 5 to 20 µM.
Turning to `Cc1c(C(=O)N2CCCC(C)C2)[nH]c2ccc(S(=O)(=O)N3CCC(C)CC3)cc12` (centres unmarked) [compound 81], the IC50 was below 5 µM.
The value for `CC1CC(C)CN(S(=O)(=O)c2ccc3oc(C(=O)N4CCN(C)CC4)cc3c2)C1` (centres unmarked) [compound 82] was 5 to 20 µM.
In the case of `CCCCN(C)C(=O)c1cc2cc(S(=O)(=O)N3CCC(C)CC3)ccc2o1` [compound 83] it was below 5 µM; in that of `CCOC(=O)N1CCN(C(=O)c2cc3cc(S(=O)(=O)N4CCC(C)CC4)ccc3[nH]2)CC1` [compound 84], below 5 µM; in that of `CCN(CC)S(=O)(=O)c1ccc2oc(C(=O)N3CCc4ccccc4C3)c(C)c2c1` [compound 85], below 5 µM.
As to `Cc1ccc(CNC(=O)c2oc3ccc(S(=O)(=O)N4CCCC4)cc3c2C)cc1` [compound 86], the IC50 lay in the range of 5 to 20 µM.
